The subject of one experiment is C. difficile ATCC43255. The experiment is described as follows: MIC, broth microdilution. Type of experiment: cell-based. Particulars: Clostridioides difficile. For orientation: In broth dilution the organism is exposed to a series of concentrations in liquid medium.
Experiment [1] relates to C. difficile. The experiment is described as follows: MIC against C. difficile (strain not named; 14 strains overall). Type of experiment: cell-based, Clostridium difficile. Particulars: for C. difficile MIC: strain not named.
The test system of another experiment is C. difficile infection. The following applies: patients treated for CDI; cited from earlier work.
In the next experiment the test system is Veillonella sp. HM-49. The experiment is described as follows: MIC against common gut bacteria. Type of experiment: cell-based. The following applies: SP.HM49; Veillonella sp. HM-49; read-out: MIC.
Experiment [2] relates to Corynebacterium sp. HM-784. The experiment is described as follows: MIC against common gut bacteria. Format: cell-based. Particulars: SP.HM784; Corynebacterium sp. HM-784; incubated aerobically; read-out: MIC. On the procedure: Minimally-inhibitory concentrations. MICs for C. difficile strains and the common gut bacteria were determined using broth microdilution techniques as reported earlier using brucella broth supplemented with hemin and vitamin K or supplemented BHIS broth (Babakhani et al., J Antimicrob Chemother 2013, 68(3), 515). Lactobacillus MRS broth was used for lactobacillus strains. […] All incubations unless specified otherwise were carried out at 24 or 48 h at 37° C. in an anaerobic chamber (Whitley DG250 workstation, Microbiology International, Frederick, MD). Corynebacterium and lactobacillus species were incubated aerobically.

The test system of the next experiment is C. difficile BAA-1801. The experiment is described as follows: MIC, broth microdilution. Particulars: Clostridioides difficile, BAA1801, C. difficile BAA-1801 (nontoxigenic). Type of experiment: cell-based.
Another experiment has as its system Bacteroides ovatus. The experiment is described as follows: MIC against common gut bacteria. The following applies: read-out: MIC. Type of experiment: cell-based.
Experiment [3] relates to Fusobacterium nucleatum HM-992. The experiment is described as follows: MIC against common gut bacteria. Format: cell-based. The following applies: HM992; Fusobacterium nucleatum HM-992; read-out: MIC.
Experiment [4] concerns Bacteroides fragilis HM-709. The experiment is described as follows: MIC against common gut bacteria. The following applies: HM709; Bacteroides fragilis HM-709; read-out: MIC. Format: cell-based.
In experiment [5] the test system is Lactobacillus reuteri HM-102. The experiment is described as follows: MIC against common gut bacteria. Particulars: Limosilactobacillus reuteri, HM102; Lactobacillus reuteri HM-102; read-out: MIC. Format: cell-based.
The subject of experiment [6] is Bifidobacterium longum HM-846. The experiment is described as follows: MIC against common gut bacteria. Format: cell-based. Particulars: HM846; Bifidobacterium longum HM-846; read-out: MIC.
Another experiment has as its system C. difficile BAA-1803. The experiment is described as follows: MIC, broth microdilution. The following applies: Clostridioides difficile, BAA1803, C. difficile BAA-1803 (NAP1, ribotype 027). Type of experiment: cell-based.
Experiment [7] concerns Lactobacillus gasseri HM-644. The experiment is described as follows: MIC against common gut bacteria. Type of experiment: cell-based. Particulars: HM644; Lactobacillus gasseri HM-644; read-out: MIC.
The subject of another experiment is Bacteroides fragilis. The experiment is described as follows: MIC against common gut bacteria. Type of experiment: cell-based. The following applies: read-out: MIC.
The next experiment has as its system Bacteroides vulgatus. The experiment is described as follows: MIC against common gut bacteria. Type of experiment: cell-based. Particulars: Phocaeicola vulgatus; Bacteroides vulgatus; read-out: MIC.
Another experiment concerns Bacteroides eggerthii. The experiment is described as follows: MIC against common gut bacteria. Type of experiment: cell-based. Particulars: read-out: MIC.
A further experiment relates to C. difficile BAA-1804. The experiment is described as follows: MIC, broth microdilution. Type of experiment: cell-based. The following applies: Clostridioides difficile, BAA1804, C. difficile BAA-1804.
Experiment [8] relates to C. difficile. The following applies: cited from earlier work.
The next experiment relates to Bacteroides caccae. The experiment is described as follows: MIC against common gut bacteria. The following applies: read-out: MIC. Type of experiment: cell-based.
For another experiment, the system named is C. difficile BAA-1812. The experiment is described as follows: MIC, broth microdilution. Format: cell-based. Particulars: Clostridioides difficile, BAA1812, C. difficile BAA-1812.
Another experiment concerns C. difficile ATCC43598. The experiment is described as follows: MIC, broth microdilution. Format: cell-based. Particulars: Clostridioides difficile, C. difficile ATCC43598.
For the next experiment, the system named is C. difficile BAA-1870. The experiment is described as follows: MIC, broth microdilution. Particulars: Clostridioides difficile, BAA1870, C. difficile BAA-1870 (NAP1, ribotype 27). Format: cell-based.
Experiment [9] deals with DNA, protein and peptidoglycan synthesis in C. difficile ATCC 43255. The experiment is described as follows: Macromolecular synthesis assays. Format: cell-based. The following applies: N-acetyl-d-[6-3H]-glucosamine incorporation; ½ MIC; 120 min. The text has this:
Macromolecular synthesis assays. The method of Mathur et al (J Antimicrob Chemother 2011, 66(5), 1087) was used with a few modifications. [2,8-^3H]-adenine (40 Ci/mmol), 1-[3,4,5-^3H(N)]-leucine (120 Ci/mmol), and N-acetyl-d-[6-^3H]-glucosamine (30 Ci/mmol) were purchased from Perkin Elmer (Waltham, MA). Ciproflaxin, linezolid, and oxacillin, were used as positive controls for DNA, protein, and peptidoglycan, respectively. Ciprofloxacin and oxacillin were purchased from Sigma-Aldrich (St. Louis, MO), linezolid was obtained from AmplaChem Inc. (Carmel, IN). […] Aliquots were taken every 30 min for radioactive counting and viability. Optimal incubation times were 60 min for DNA, 180 min for protein, and 120 min for peptidoglycan.

Where [10] appears, read: ATCC43255, FIG. 3 legend, C. difficile, read-out: MIC of positive controls of the macromolecular synthesis assays.

≈ marks a conversion by molar mass, not a printed value. Like-named read-outs stand apart in the source and are kept apart here.

Broadly, the MIC is the least concentration at which growth counts as inhibited.

On to `O=C(O)c1cn(C2CC2)c2cc(N3CCNCC3)c(F)cc2c1=O` [ciprofloxacin], for which, in the experiment on C. difficile ATCC43255 (setting [10]), the MIC worked out at 8 µg/mL.

In the experiment on C. difficile [1], `Oc1ccc(-c2nc(-c3ccc(OC4CCCC=C4Br)cc3)no2)cc1` (centres unmarked) [ix] yielded a C. difficile MIC of 2 µg/mL.

With `CC(=O)NC[C@H]1CN(c2ccc(N3CCOCC3)c(F)c2)C(=O)O1` [linezolid], the MIC in the experiment on C. difficile ATCC43255 (setting [10]) amounted to 2 µg/mL.

Take `Cc1ncc([N+](=O)[O-])n1CCO` [metronidazole]: in the experiment on C. difficile infection, the “Patients with recurrence of the infection” value is “About 25%”. Further, the MIC in the experiment on Veillonella sp. HM-49 was 2 µg/mL (≈ 11.7 µM); in experiment [2], above 32 µg/mL; in the experiment on C. difficile BAA-1801 (24 h, read-out: MIC at 24 h), 0.125 µg/mL (≈ 0.73 µM); in the experiment on C. difficile BAA-1801 (48 h, read-out: MIC at 48 h), 0.125 µg/mL (≈ 0.73 µM); in the experiment with Bacteroides ovatus, 2 µg/mL (≈ 11.7 µM); in experiment [3] it was 2 µg/mL (≈ 11.7 µM). The MIC in experiment [4] was 0.5 µg/mL (≈ 2.92 µM); in experiment [5], above 32 µg/mL; in the experiment on C. difficile ATCC43255 (C. difficile ATCC43255, 24 h, read-out: MIC at 24 h), 0.01 µg/mL (≈ 0.0584 µM); in the experiment with C. difficile ATCC43255 (C. difficile ATCC43255, 48 h, read-out: MIC at 48 h), 0.01 µg/mL (≈ 0.0584 µM); in experiment [6], 0.5 µg/mL (≈ 2.92 µM); in the experiment on C. difficile BAA-1803 (24 h, read-out: MIC at 24 h), 0.25 µg/mL (≈ 1.46 µM). In addition, the MIC with C. difficile BAA-1803 (48 h, read-out: MIC at 48 h) was 0.5 µg/mL (≈ 2.92 µM); in [7], above 32 µg/mL; in the experiment on Bacteroides fragilis, 1 µg/mL (≈ 5.84 µM); with Bacteroides vulgatus, 2 µg/mL (≈ 11.7 µM); in the experiment on Bacteroides eggerthii, 2 µg/mL (≈ 11.7 µM); in the experiment on C. difficile BAA-1804 (24 h, read-out: MIC at 24 h) it was 0.25 µg/mL (≈ 1.46 µM). For the same compound, the MIC in the experiment on C. difficile BAA-1804 (48 h, read-out: MIC at 48 h) worked out at 0.25 µg/mL (≈ 1.46 µM); in the experiment with Bacteroides caccae, 2 µg/mL (≈ 11.7 µM); in the experiment on C. difficile BAA-1812 (24 h, read-out: MIC at 24 h), 0.25 µg/mL (≈ 1.46 µM); in the experiment with C. difficile BAA-1812 (48 h, read-out: MIC at 48 h) it was 0.25 µg/mL (≈ 1.46 µM); in the experiment with C. difficile ATCC43598 (24 h, read-out: MIC at 24 h) it was 0.125 µg/mL (≈ 0.73 µM); in the experiment on C. difficile ATCC43598 (48 h, read-out: MIC at 48 h), 0.125 µg/mL (≈ 0.73 µM). Further, the MIC in the experiment on C. difficile BAA-1870 (24 h, read-out: MIC at 24 h) was determined as 0.25 µg/mL (≈ 1.46 µM); in the experiment with C. difficile BAA-1870 (48 h, read-out: MIC at 48 h), 0.5 µg/mL (≈ 2.92 µM). Moreover, the “MIC range in 14 C. difficile strains” value against C. difficile [1] (14 C. difficile strains) was in the range of 0.1 to 0.25 µg/mL. Besides, the “Activity against C. difficile spores” value in the experiment with C. difficile [8] (at 8× or 80× MIC) was “not active”. In addition, the “Inhibition of toxin production” value in the experiment with C. difficile [8] (at 8×MIC) was “Neither vancomycin nor metronidazole inhibit toxin production”.

`Cc1onc(-c2ccccc2)c1C(=O)N[C@@H]1C(=O)N2[C@@H]1SC(C)(C)[C@@H]2C(=O)O` [oxacillin]: the minimal inhibitory concentration (MIC) with C. difficile ATCC43255 (setting [10]) came to 8 µg/mL. Besides, the “Inhibition of peptidoglycan synthesis” value in experiment [9] is given as 54.1±13%.

As for `CCCCCc1ccc(/C(C)=C/C(=O)N[C@H](Cc2c[nH]c3ccccc23)C(=O)N[C@H](CC(N)=O)C(=O)N[C@@H](CC(=O)O)C(=O)N[C@@H]2C(=O)NCC(=O)N[C@@H](CCCN)C(=O)N[C@@H](CC(=O)O)C(=O)N[C@H](C)C(=O)N[C@@H](CC(=O)O)C(=O)NCC(=O)N[C@H](CO)C(=O)N[C@@H]([C@H](C)CC(=O)O)C(=O)N[C@@H](CC(=O)c3ccccc3N)C(=O)O[C@@H]2C)cc1` [surotomycin], in the experiment on C. difficile [8] ([…]), the “Inhibition of toxin production” value is “nor inhibits toxin production”.

For `Oc1ccc(-c2nc(-c3ccc(OC4CC4)cc3)no2)cc1` [vii], the C. difficile MIC with C. difficile [1] amounted to 8 µg/mL.

With `Oc1ccc(-c2nc(-c3ccc(OC4CCC=C4Br)cc3)no2)cc1` (centres unmarked) [xi], the C. difficile MIC with C. difficile [1] worked out at 2 µg/mL.

`Oc1ccc(-c2nc(-c3ccc(OC(F)(F)F)cc3)no2)cc1` [xvii]: the C. difficile MIC with C. difficile [1] stood at 4 µg/mL.

On to `NCc1ccc(-c2nc(-c3ccc(Oc4ccc(C(F)(F)F)cc4)cc3)no2)cc1` [xxi], for which the C. difficile MIC in the experiment with C. difficile [1] is 4 µg/mL.

The compound `Oc1ccc(-c2nc(-c3ccc(OC4CCCC4)cc3)no2)cc1` [xxii] had a C. difficile MIC with C. difficile [1] of 2 µg/mL.

These data come from patent US12054466B2, “Compounds for the treatment of clostridium difficile infection” (University of Notre Dame du Lac, priority 2016, dated 2024).
